≈ marks a conversion by molar mass, not a printed value. Read-outs that look alike come from different tables or passages of the source.
Experiments:
N. gonorrhoeae = assay: microbe, parasite or virus in culture; format: cell-based; settings: Neisseria gonorrhoeae
Francisella tularensis = assay: microbe, parasite or virus in culture; format: cell-based; settings: read-out: Francisella tularensis NR-577 MIC, strain NR-577
Bacillus subtilis = assay: MIC/MBC against Bacillus subtilis strains; format: cell-based
Burkholderia cenocepacia = assay: microbe, parasite or virus in culture; format: cell-based
Bacillus thuringiensis = assay: microbe, parasite or virus in culture; format: cell-based
Candida glabrata = assay: microbe, parasite or virus in culture; format: cell-based; settings: Nakaseomyces glabratus
[1] = system: Burkholderia thailandensis; assay: microbe, parasite or virus in culture; format: cell-based
S. aureus [2] = assay: Macromolecular synthesis assay (glucosamine incorporation into cell wall); format: cell-based, Staphylococcus aureus; settings: dose-response, FIG. 2A-2B
S. aureus [3] = assay: SYTOX green cell permeability assay on S. aureus; format: cell-based, Staphylococcus aureus; settings: concentrations relative to the MIC, FIG. 1A
HepG2 cells [4] = assay: SYTOX permeabilization assay on HepG2 cells; format: cell-based; settings: up to 4× MIC, FIG. 2C
HepG2 cells [5] = assay: Cytotoxicity MTT assay in HepG2 cells; format: cell-based; settings: Homo sapiens
Experimental: Additionally, the antimicrobial compounds were analyzed for cytotoxicity. […] We utilized the standard MTT assay (Promega CellTiter 96) and GraphPad Prism 7 software to determine EC50 values for each analogue. Briefly, 20,000 HepG2 cells in 200 μl of the ATCC recommended media were seeded in each well of a 96-well plate with a moisture barrier created in the outermost wells. The cells were allowed to attach overnight at 37° C., and then observed under phase contrast microscopy for proper morphological characteristics. […] Once incubations were complete, the spectrophotometric absorbance of the samples was measured at a wavelength of 595 nm. […] For the HepaRG assay, NoSpin HepaRG™ cells (Lonza, cat #NSHPRG) were thawed and plated with 20,000 cells per well. They were allowed to attach for 4 h (optimal DME profile per Lonza's testing) before dosing following the identical protocol as above.

[6] = system: branched chain amino acid synthesis pathway; assay: Transcriptomic (RNAseq) and metabolic mechanism of action studies
Staphylococcus aureus = assay: microbe, parasite or virus in culture
[7] = read-out: Neisseria gonorrhoeae WHO 914 MIC, strain WHO 914

**Q.** Which results are given for `Brc1ccc(Oc2c[nH]c3ccccc23)cc1` [Compound 156KC, 3-(4-bromophenoxy)-1H-indole]?
**A.** MIC (N. gonorrhoeae; read-out: Neisseria gonorrhoeae WHO 901 MIC, strain WHO 901): 8 µg/mL (≈ 27.8 µM); MIC (N. gonorrhoeae; [7]): 8 µg/mL (≈ 27.8 µM); MIC (Francisella tularensis): 2 µg/mL (≈ 6.94 µM)

**Q.** Which MBC (Bacillus subtilis) does the source give for `Brc1ccc(Oc2c[nH]c3cc(Br)ccc23)cc1` [174AC, 6-bromo-3-(4-bromophenoxy)-1H-indole] here?
**A.** 16 µg/mL (≈ 43.6 µM)

**Q.** And the MIC (Bacillus subtilis)?
**A.** 8 µg/mL (≈ 21.8 µM)

**Q.** What about the MIC (Burkholderia cenocepacia) of the same compound?
**A.** > 50 µg/mL

**Q.** And the MBC (Bacillus thuringiensis)?
**A.** 50 µg/mL (≈ 136 µM)

**Q.** And the MIC (Bacillus thuringiensis; Bacillus thuringiensis Berliner ATCC: 10792)?
**A.** 8 µg/mL (≈ 21.8 µM)

**Q.** What about the MIC (Candida glabrata) of the same compound?
**A.** 25 µg/mL (≈ 68.1 µM)

**Q.** What about the MIC [1] of the same compound?
**A.** > 50 µg/mL

**Q.** For `Fc1ccc2[nH]cc(Cc3ccc(Br)cc3)c2c1` [Compound 174EB, 3-(4-bromobenzyl)-5-fluoro-1H-indole], which MIC (N. gonorrhoeae; [7]) is on record?
**A.** 8 µg/mL (≈ 26.3 µM)

**Q.** And the MIC (Francisella tularensis)?
**A.** 2 µg/mL (≈ 6.58 µM)

**Q.** With `CN[C@H](CC(C)C)C(=O)N[C@H]1C(=O)N[C@@H](CC(N)=O)C(=O)N[C@H]2C(=O)N[C@H]3C(=O)N[C@H](C(=O)N[C@H](C(=O)O)c4cc(O)cc(O)c4-c4cc3ccc4O)[C@H](O)c3ccc(c(Cl)c3)Oc3cc2cc(c3O[C@@H]2O[C@H](CO)[C@@H](O)[C@H](O)[C@H]2O[C@H]2C[C@](C)(N)[C@H](O)[C@H](C)O2)Oc2ccc(cc2Cl)[C@H]1O` [vancomycin, reference compound] as the compound, how does the “cell wall synthesis inhibition (glucosamine incorporation)” value (S. aureus [2]) read?
**A.** increasingly inhibits glucosamine from incorporating into a cell wall

**Q.** How did the “cell permeability by SYTOX green fluorescence” value (S. aureus [3]) turn out when `CC[C@H](C)[C@H](NC(=O)CN)C(=O)NCC(=O)N[C@@H](C)C(=O)N[C@H](C(=O)N[C@@H](CC(C)C)C(=O)N[C@@H](CCCCN)C(=O)N[C@H](C(=O)N[C@@H](CC(C)C)C(=O)N[C@H](C(=O)N[C@H](C(=O)NCC(=O)N[C@@H](CC(C)C)C(=O)N1CCC[C@H]1C(=O)N[C@@H](C)C(=O)N[C@@H](CC(C)C)C(=O)N[C@H](C(=O)N[C@@H](CO)C(=O)N[C@@H](Cc1c[nH]c2ccccc12)C(=O)N[C@H](C(=O)N[C@@H](CCCCN)C(=O)N[C@@H](CCCNC(=N)N)C(=O)N[C@@H](CCCCN)C(=O)N[C@@H](CCCNC(=N)N)C(=O)N[C@@H](CCC(N)=O)C(=O)N[C@@H](CCC(N)=O)C(N)=O)[C@@H](C)CC)[C@@H](C)CC)[C@@H](C)O)[C@@H](C)O)C(C)C)C(C)C` [melittin, reference compound] was run?
**A.** permeabilizes cells

**Q.** `Brc1ccc2[nH]cc(Sc3ccccc3Br)c2c1` [Compound 174I, 5-bromo-3-((2-bromophenyl)thio)-1H-indole] was tested. Which “permeabilization of HepG2 cells (SYTOX)” value (HepG2 cells [4]) did it give?
**A.** no permeabilization of HepG2 cells

**Q.** What about the EC50 (HepG2 cells [5]) of the same compound?
**A.** 25.4 µg/mL (≈ 66.3 µM)

**Q.** And the “cell permeability by SYTOX green fluorescence” value (S. aureus [3])?
**A.** clear dose-dependent increase in permeability

**Q.** What about the “mechanism of action by transcriptomic and metabolic studies” value [6] of the same compound?
**A.** branched chain amino acid biosynthesis inhibition

**Q.** What about the “cell wall synthesis inhibition (glucosamine incorporation)” value (S. aureus [2]) of the same compound?
**A.** substantial cell wall synthesis inhibition

**Q.** With `Nc1ccccc1Sc1c[nH]c2ccc(Br)cc12` [Compound 174M, 2-((5-bromo-1H-indol-3-yl)thio)aniline] as the compound, how does the “permeabilization of HepG2 cells (SYTOX)” value (HepG2 cells [4]) read?
**A.** no permeabilization of HepG2 cells

**Q.** What about the EC50 (HepG2 cells [5]) of the same compound?
**A.** 26.5 µg/mL (≈ 83 µM)

**Q.** What about the MIC (Staphylococcus aureus; MRSA, read-out: Staphylococcus aureus MIC, MRSA strain HM-467) of the same compound?
**A.** 12.5 µg/mL (≈ 39.2 µM)

**Q.** What about the MIC (Staphylococcus aureus; MRSA, read-out: Staphylococcus aureus MIC, MRSA strain NK-41886) of the same compound?
**A.** 12.5 µg/mL (≈ 39.2 µM)

**Q.** And the MIC (Staphylococcus aureus; MRSA, read-out: Staphylococcus aureus MIC, MRSA strain NR-13533)?
**A.** 12.5 µg/mL (≈ 39.2 µM)

**Q.** And the MIC (Staphylococcus aureus; MRSA, read-out: Staphylococcus aureus MIC, MRSA strain NR-28983)?
**A.** 12.5 µg/mL (≈ 39.2 µM)

**Q.** And the MIC (Staphylococcus aureus; MRSA, read-out: Staphylococcus aureus MIC, MRSA strain NR-41875)?
**A.** 12.5 µg/mL (≈ 39.2 µM)

**Q.** What about the MIC (Staphylococcus aureus; MRSA, read-out: Staphylococcus aureus MIC, MRSA strain NR-41876) of the same compound?
**A.** 12.5 µg/mL (≈ 39.2 µM)

**Q.** What about the MIC (Staphylococcus aureus; MRSA, read-out: Staphylococcus aureus MIC, MRSA strain NR-41877) of the same compound?
**A.** 25 µg/mL (≈ 78.3 µM)

**Q.** What about the MIC (Staphylococcus aureus; MRSA, read-out: Staphylococcus aureus MIC, MRSA strain NR-41878) of the same compound?
**A.** 12.5 µg/mL (≈ 39.2 µM)

**Q.** What about the MIC (Staphylococcus aureus; read-out: Staphylococcus aureus MIC, VSSA NR-49121) of the same compound?
**A.** 12.5 µg/mL (≈ 39.2 µM)

**Q.** And the “mechanism of action by transcriptomic and metabolic studies” value [6]?
**A.** branched chain amino acid biosynthesis inhibition

— patent US20250382268A1, “METHODS AND COMPOSITIONS FOR SELECTIVELY INHIBITING PATHOGENIC MICROBES” (priority 2019, published 2025)
